GI50 and TGI data for eleven compounds are collected here from PubChem BioAssay (NCI).

Among the test systems are COLO 205 colon; HCC-2998 colon; HCT-116 colon; HCT-15 colon; HOP-92 NSCLC; K-562 leukemia; OVCAR-8 ovarian; SNB-75 CNS; TK-10 renal; UACC-257 melanoma.
Common to all, as to assay: NCI tumour cell line growth inhibition, 48 h

Several values for one entry are separate records, joined by “and”; a condition that tells them apart may be missing. Equal entries are not always repeated.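 Growth conditions: 96-well plates. Treatment: test compound, 48 hours, 5 concentrations. Analysis: linear interpolation between bracketing concentrations; unreached endpoints set to highest concentration. Abbreviation: GI50, concentration required for 50% inhibition of growth. TGI: concentration producing complete growth inhibition.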

As to `CC[C@H](NC(=O)[C@H](C)NC)C(=O)N1C[C@@H](O)C[C@H]1Cc1c(-c2[nH]c3cc(F)ccc3c2C[C@@H]2C[C@H](O)CN2C(=O)[C@H](CC)NC(=O)[C@H](C)NC)[nH]c2cc(F)ccc12`, the GI50 in the experiment with COLO 205 colon was above 55.8 µM; in the experiment on HCC-2998 colon, 96.9 µM; in the experiment on HCT-116 colon, above 100 µM; with HCT-15 colon, above 100 µM; with HOP-92 NSCLC, 7.7 µM; in the experiment on K-562 leukemia it was 47.3 µM. Besides, the GI50 in the experiment with OVCAR-8 ovarian is 31.2 µM; in the experiment on SNB-75 CNS, 2.65 µM; in the experiment on TK-10 renal, above 100 µM; with UACC-257 melanoma it was 0.0431 µM. Also, the TGI was above 100 µM in the experiment with COLO 205 colon; above 100 µM in the experiment with HCC-2998 colon; above 100 µM with HCT-116 colon; above 100 µM in the experiment with HCT-15 colon; 40.8 µM in the experiment with HOP-92 NSCLC; above 100 µM in the experiment with K-562 leukemia. Besides, the TGI in the experiment on OVCAR-8 ovarian, in the experiment with SNB-75 CNS, in the experiment with TK-10 renal and with UACC-257 melanoma was above 100 µM each time.
Consider `C=C1C(=O)C23CC1C[C@H](OC(C)=O)[C@H]2C1(C)C(OC(C)=O)C[C@H](O)C(C)(C)[C@H]1C(=O)[C@@H]3OC(C)=O` (some centres not stated), for which the TGI is 4.8 µM in the experiment with COLO 205 colon; 35.9 µM with HCC-2998 colon; 6.16 µM with HCT-116 colon; 11 µM in the experiment with HCT-15 colon; 7.84 µM with HOP-92 NSCLC; above 21 µM in the experiment on K-562 leukemia. The TGI with OVCAR-8 ovarian was determined as 7.9 µM; with SNB-75 CNS it was 32.8 µM; with TK-10 renal, 5.82 µM; in the experiment on UACC-257 melanoma it was 11 µM.
In the case of `CC(=O)[O-].CC(=O)[O-].[Pt+2].c1cscn1.c1cscn1`, the GI50 in the experiment on COLO 205 colon was above 100 µM; in the experiment with HCC-2998 colon, above 100 µM; in the experiment on HCT-116 colon, 53.9 µM; with HCT-15 colon, 77.5 µM; in the experiment on HOP-92 NSCLC, above 100 µM; in the experiment on K-562 leukemia it was 42.7 µM. In addition, the GI50 in the experiment on OVCAR-8 ovarian was 31.3 µM; in the experiment with SNB-75 CNS, above 100 µM; with TK-10 renal it was above 100 µM; in the experiment with UACC-257 melanoma, 31.9 µM. Further, the TGI with COLO 205 colon, with HCC-2998 colon, with HCT-116 colon, with HCT-15 colon, in the experiment on HOP-92 NSCLC and with K-562 leukemia was above 100 µM in each case. Also, the TGI was 71.7 µM in the experiment on OVCAR-8 ovarian, above 100 µM in the experiment on SNB-75 CNS, above 100 µM with TK-10 renal and 85.3 µM with UACC-257 melanoma.
As for `CCCCc1c2c(nc3c1CCC/C3=C\c1ccccc1)C(=O)CCC2`, the TGI with COLO 205 colon was 48.6 µM; in the experiment with HCC-2998 colon, 35.2 µM; in the experiment on HCT-116 colon, 39.5 µM; with HCT-15 colon, 51.9 µM; in the experiment on HOP-92 NSCLC it was 58.7 µM; in the experiment with K-562 leukemia, 85.2 µM. Also, the TGI with OVCAR-8 ovarian was above 100 µM; with SNB-75 CNS, 84.5 µM; with TK-10 renal it was 72.4 µM; in the experiment on UACC-257 melanoma, 44.8 µM.
Regarding `COc1cc(/C=C/C(=O)CC(=O)/C=C/c2cc(OC)c(OC)c(OC)c2)cc(OC)c1OC`, the GI50 with COLO 205 colon was 6.93 µM; in the experiment with HCC-2998 colon, 15.9 µM; in the experiment on HCT-116 colon, 1.71 µM; in the experiment on HCT-15 colon it was 3.32 µM; in the experiment with HOP-92 NSCLC it was 2.47 µM; in the experiment on K-562 leukemia, 2.82 µM. Also, the GI50 in the experiment with OVCAR-8 ovarian is 3.04 µM; in the experiment on SNB-75 CNS, 3.89 µM; in the experiment with TK-10 renal, 4.08 µM; in the experiment on UACC-257 melanoma, 3.23 µM. Also, the TGI with COLO 205 colon was above 100 µM; in the experiment with HCC-2998 colon, above 100 µM; in the experiment with HCT-116 colon it was 4.26 µM; in the experiment with HCT-15 colon it was 12.7 µM; with HOP-92 NSCLC it was 8.34 µM; with K-562 leukemia it was above 100 µM. The TGI in the experiment on OVCAR-8 ovarian was 13.8 µM; in the experiment with SNB-75 CNS it was 50.5 µM; with TK-10 renal, 19.2 µM; in the experiment on UACC-257 melanoma it was 31.1 µM.
On to `CC(O)c1cccc(NCc2c3ccccc3c(=O)n3c2oc2ccccc23)c1` (configuration not stated), for which the GI50 with COLO 205 colon is above 100 µM; in the experiment on HCC-2998 colon, 11.3 µM; in the experiment with HCT-116 colon it was 3.13 µM; with HCT-15 colon, 5.56 µM; with HOP-92 NSCLC it was 5.4 µM; with K-562 leukemia, above 100 µM. Further, the GI50 was 8.04 µM with OVCAR-8 ovarian, 1.75 µM in the experiment with SNB-75 CNS, 5.7 µM in the experiment with TK-10 renal and 8.24 µM in the experiment with UACC-257 melanoma. Further, the TGI with COLO 205 colon is above 100 µM; with HCC-2998 colon it was 57.2 µM; in the experiment on HCT-116 colon, 14.4 µM; in the experiment on HCT-15 colon, 28.8 µM; with HOP-92 NSCLC it was 44.3 µM; in the experiment on K-562 leukemia it was above 100 µM. Moreover, the TGI with OVCAR-8 ovarian was determined as 36.2 µM; with SNB-75 CNS it was 5.76 µM; with TK-10 renal, 28 µM; with UACC-257 melanoma, 47.7 µM.
As to `O=c1c2c(nc3n1CCS3)[nH]c1ccccc12`, the GI50 in the experiment with COLO 205 colon, in the experiment on HCC-2998 colon, with HCT-116 colon, in the experiment with HCT-15 colon, with HOP-92 NSCLC and in the experiment on K-562 leukemia was above 100 µM each time. Besides, the GI50 with OVCAR-8 ovarian is above 100 µM; in the experiment with SNB-75 CNS it was 30.5 µM; in the experiment on TK-10 renal, above 100 µM; in the experiment on UACC-257 melanoma, above 100 µM. Moreover, the TGI in the experiment on COLO 205 colon, with HCC-2998 colon, in the experiment with HCT-116 colon, in the experiment with HCT-15 colon, in the experiment with HOP-92 NSCLC and in the experiment on K-562 leukemia was above 100 µM each time. The TGI in the experiment on OVCAR-8 ovarian, in the experiment on SNB-75 CNS, with TK-10 renal and in the experiment with UACC-257 melanoma was above 100 µM each time.
Consider `NC(=O)C(=Cc1ccc(C(O)P(=O)(O)O)cc1)C(N)=O` (configuration not stated), for which the TGI in the experiment on COLO 205 colon, in the experiment on HCC-2998 colon, in the experiment on HCT-116 colon, with HCT-15 colon, in the experiment on HOP-92 NSCLC and in the experiment on K-562 leukemia was above 100 µM throughout. Further, the TGI in the experiment on OVCAR-8 ovarian, in the experiment on SNB-75 CNS, in the experiment with TK-10 renal and in the experiment on UACC-257 melanoma was above 100 µM throughout.
Regarding `Cn1c([N+](=O)[O-])cnc1/C=C1\Oc2ccccc2C1=O`, the GI50 is 0.543 µM in the experiment with COLO 205 colon; 1.9 µM in the experiment with HCC-2998 colon; 0.187 µM in the experiment on HCT-116 colon; 0.193 µM with HCT-15 colon; 0.762 µM in the experiment with HOP-92 NSCLC; 0.487 µM with K-562 leukemia. Besides, the GI50 in the experiment on OVCAR-8 ovarian was 0.186 µM; in the experiment with SNB-75 CNS, 1.51 µM; with TK-10 renal, 1.29 µM; in the experiment on UACC-257 melanoma, 0.682 µM. The TGI with COLO 205 colon is 3.02 µM; in the experiment with HCC-2998 colon it was 5.06 µM; in the experiment on HCT-116 colon it was 1.06 µM; in the experiment on HCT-15 colon it was 0.675 µM; with HOP-92 NSCLC it was 3.37 µM; in the experiment with K-562 leukemia, 7.02 µM. For the same compound, the TGI in the experiment on OVCAR-8 ovarian came to 0.677 µM; in the experiment with SNB-75 CNS, 4.87 µM; with TK-10 renal it was 7.77 µM; in the experiment on UACC-257 melanoma it was 2.84 µM.
Take `COC(=O)CCc1cc(OC)c2c(c1)C(C(=O)OC)C(c1ccc(OC)c(OC)c1)O2` (configuration not stated): the GI50 was > 100 µM and 21.6 µM in the experiment with COLO 205 colon; > 100 µM and 39.6 µM with OVCAR-8 ovarian. For the same compound, the TGI with COLO 205 colon, in the experiment with HCC-2998 colon, in the experiment on HCT-116 colon, in the experiment with HCT-15 colon, in the experiment with HOP-92 NSCLC and in the experiment on K-562 leukemia was above 100 µM in each case. The TGI is above 100 µM in the experiment with OVCAR-8 ovarian, 50.6 µM in the experiment on SNB-75 CNS, above 100 µM with TK-10 renal and above 100 µM with UACC-257 melanoma.
For the compound `O=S(=O)(NC1=NCCN1C(=S)SN1CCn2c1nsc2=S)c1ccc(Br)cc1`, the GI50 in the experiment on COLO 205 colon was 28.7 µM; in the experiment with HCC-2998 colon, 63.9 µM; with HCT-116 colon, 24.7 µM; in the experiment with HCT-15 colon it was 31.8 µM; in the experiment on HOP-92 NSCLC, 0.0273 µM; with K-562 leukemia it was 24.6 µM. The GI50 is 25.8 µM with OVCAR-8 ovarian, 44.5 µM in the experiment with SNB-75 CNS, 22 µM in the experiment with TK-10 renal and 46.6 µM in the experiment on UACC-257 melanoma. Also, the TGI was 86.3 µM with COLO 205 colon; above 100 µM in the experiment on HCC-2998 colon; 73.2 µM with HCT-116 colon; above 100 µM in the experiment on HCT-15 colon; 36.7 µM in the experiment with HOP-92 NSCLC; 83.2 µM with K-562 leukemia. In addition, the TGI with OVCAR-8 ovarian was 68.8 µM; in the experiment on SNB-75 CNS it was above 100 µM; with TK-10 renal it was 83.5 µM; in the experiment with UACC-257 melanoma it was above 100 µM.
